system: Trachea; assay: Induction of bronchodilation in guinea pig tracheal rings assessed as reduction in histamine-induced contractions; type: functional, tissue-based; settings: Cavia porcellus

| Structure (SMILES) | IC50 [µM] |
| --- | --- |
| COc1nc(-c2ccc(F)cc2)cc(-c2ccc(Cl)cc2Cl)c1C#N | 7.43 |
| N#Cc1c(-c2ccc(Cl)cc2Cl)cc(-c2ccc(Cl)cc2)nc1N1CCCCC1 | 7.83 |
| CCOc1nc(-c2ccc(F)cc2)cc(-c2ccc(Cl)cc2Cl)c1C#N | 8.02 |
| COc1nc(-c2cccs2)cc(-c2ccc(Cl)cc2Cl)c1C#N | 3.28 |
| N#Cc1c(-c2ccc(Cl)cc2Cl)cc(-c2ccc(Cl)cc2)nc1N1CCOCC1 | 6.71 |
| COc1nc2c(c(-c3ccc(Cl)cc3Cl)c1C#N)-c1ccccc1C2 | 9.11 |
| CCOc1nc2c(c(-c3ccc(Cl)cc3Cl)c1C#N)CCCc1ccccc1-2 | 13 |
| COc1nc(-c2ccc(Cl)cc2)cc(-c2ccc(Cl)cc2Cl)c1C#N | 7.55 |
| CCOc1nc(-c2ccc(Br)cc2)cc(-c2ccc(Cl)cc2Cl)c1C#N | 12.4 |
| COc1nc(-c2ccc(Br)cc2)cc(-c2ccc(Cl)cc2Cl)c1C#N | 8.02 |
| CN1CCN(c2nc(-c3ccc(Cl)cc3)cc(-c3ccc(Cl)cc3Cl)c2C#N)CC1 | 13 |
| COc1nc(-c2ccc(C)cc2)cc(-c2ccc(Cl)cc2Cl)c1C#N | 10.6 |
| COc1nc(-c2ccc3ccccc3c2)cc(-c2ccc(Cl)cc2Cl)c1C#N | 9.4 |
| COc1nc2c(c(-c3ccc(Cl)cc3Cl)c1C#N)-c1ccccc1CC2 | 6.36 |
| N#Cc1c(-c2ccc(Cl)cc2Cl)cc(-c2ccc(Cl)cc2)nc1Br | 9.14 |
| COc1nc(-c2ccncc2)cc(-c2ccc(Cl)cc2Cl)c1C#N | 11.8 |
| COc1nc(-c2cccnc2)cc(-c2ccc(Cl)cc2Cl)c1C#N | 17.1 |
| CCOc1nc(-c2cccs2)cc(-c2ccc(Cl)cc2Cl)c1C#N | 8.71 |
| COc1nc2c(c(-c3ccc(Cl)cc3Cl)c1C#N)COc1ccccc1-2 | 6.11 |
| CCOc1nc2c(c(-c3ccc(Cl)cc3Cl)c1C#N)-c1ccccc1C2 | 11 |
| COc1nc2c(c(-c3ccc(Cl)cc3Cl)c1C#N)CCCc1ccccc1-2 | 10 |
| COc1cc2c(cc1OC)-c1nc(OC)c(C#N)c(-c3ccc(Cl)cc3Cl)c1C2 | 6.8 |
| COc1nc(-c2ccccc2)cc(-c2ccc(Cl)cc2Cl)c1C#N | 5.34 |
| CCOc1nc(-c2ccc(Cl)cc2)cc(-c2ccc(Cl)cc2Cl)c1C#N | 9.38 |
| CCN1CCN(c2nc(-c3ccc(Cl)cc3)cc(-c3ccc(Cl)cc3Cl)c2C#N)CC1 | 15.8 |
| COc1nc2c(c(-c3ccc(Cl)cc3Cl)c1C#N)CSc1ccccc1-2 | 11 |
| CCOc1nc2c(c(-c3ccc(Cl)cc3Cl)c1C#N)-c1ccccc1CC2 | 7.07 |
| COc1ccc(-c2cc(-c3ccc(Cl)cc3Cl)c(C#N)c(OC)n2)cc1 | 9.89 |
| Cn1c(=O)c2nc[nH]c2n(C)c1=O [THEOPHYLLINE] | 11.6 |
| COc1ccc(-c2cc(-c3ccc(Cl)cc3Cl)c(C#N)c(OC)n2)cc1OC | 7.91 |

system: Trachea; assay: Potency index, ratio of theophylline IC50 to test compound IC50 for reduction in histamine-induced contractions in guinea pig tracheal rings; type: functional, Cavia porcellus; settings: not given

| Structure (SMILES) | Ratio IC50 |
| --- | --- |
| COc1nc(-c2ccccc2)cc(-c2ccc(Cl)cc2Cl)c1C#N | 2 |

Source: ChEMBL document CHEMBL4130361, “Synthesis, molecular modeling studies and bronchodilation properties of nicotinonitrile containing-compounds” (Eur J Med Chem, 2017)
